CH4 permeability [Barrer]	CO2 permeability [Barrer]	H2 permeability [Barrer]	N2 permeability [Barrer]	O2 permeability [Barrer]	Structure (SMILES)
24700	35800	23600	10200	12700	*C(=C(*)c1ccc2c(c1)C(C)(C)C(C)(C)C2(C)C)c1ccccc1 (repeat unit)
10100	16900	10800	4100	5700	*C(=C(*)c1ccc2c(c1)C(C)(C)CC2(C)C)c1ccc(C)cc1 (repeat unit)
22700	35200	20600	9200	11700	*C(=C(*)c1ccc2c(c1)C(C)(C)CC2(C)C)c1ccc(Cl)cc1 (repeat unit)
35000	44200	36800	16600	18700	*C(=C(*)c1ccc2c(c1)C(C)(C)CC2(C)C)c1ccc(F)c(F)c1 (repeat unit)
0.0311	0.963	–	0.0398	0.259	*Oc1ccc(Oc2ccc(C(=O)c3ccc(*)cc3)cc2)cc1 (repeat unit)
0.221	4.65	–	0.217	1.39	*Oc1ccc(Oc2ccc(C(=O)c3ccc(*)cc3)cc2)cc1C(C)(C)C (repeat unit)
0.18	4.3	15	0.196	1.1	*Oc1ccc(Oc2ccc(Oc3ccc(S(=O)(=O)c4ccc(*)cc4)cc3)cc2)cc1 (repeat unit)
0.83	19	35	1.12	6.6	*Oc1ccc(Oc2cccc(*)c2C#N)c(-c2cc(C(F)(F)F)cc(C(F)(F)F)c2)c1 (repeat unit)
0.06	3.5	9.6	0.17	0.94	*Oc1ccc(Oc2cccc(*)c2C#N)c(-c2cc(C)cc(C)c2)c1 (repeat unit)
0.09	3.7	9.3	0.15	0.87	*Oc1ccc(Oc2cccc(*)c2C#N)c(-c2cccc(C(F)(F)F)c2)c1 (repeat unit)
0.05	1.9	6.8	0.07	0.45	*Oc1ccc(Oc2cccc(*)c2C#N)c(-c2cccc(C)c2)c1 (repeat unit)
0.5	10.8	20.1	0.469	2.39	*Oc1ccc(S(=O)(=O)c2ccc(-c3ccc(S(=O)(=O)c4ccc(Oc5ccc(C(C)(C)c6ccc(*)cc6)cc5)cc4)cc3)cc2)cc1 (repeat unit)
1.27	31.8	–	1.21	5.8	*Oc1ccc(S(=O)(=O)c2ccc(Oc3c(C)cc(-c4cc(C)c(*)c(C)c4)cc3C)cc2)cc1 (repeat unit)
0.522	21	15.5	1.06	5.6	*Oc1ccc(S(=O)(=O)c2ccc(Oc3c(C)cc(C(C)(C)c4cc(C)c(*)c(C)c4)cc3C)cc2)cc1 (repeat unit)
0.255	5.6	–	0.236	1.3	*Oc1ccc(S(=O)(=O)c2ccc(Oc3ccc(-c4ccc(*)cc4)cc3)cc2)cc1 (repeat unit)
0.0706	2.1	–	0.0914	0.64	*Oc1ccc(S(=O)(=O)c2ccc(Oc3ccc(C(C)(C)c4ccc(*)c(C)c4)cc3C)cc2)cc1 (repeat unit)
0.11	1.95	–	0.11	0.7	*Oc1ccc(S(=O)(=O)c2ccc(Oc3ccc(C(C)(C)c4ccc(*)cc4)cc3CN)cc2)cc1 (repeat unit)
0.08	2.12	–	0.08	0.54	*Oc1ccc(S(=O)(=O)c2ccc(Oc3ccc(C(C)(C)c4ccc(*)cc4)cc3CN3C(=O)c4ccccc4C3=O)cc2)cc1 (repeat unit)
0.12	2.95	–	0.12	0.745	*Oc1ccc(S(=O)(=O)c2ccc(Oc3ccc(C(C)(C)c4ccc(*)cc4)cc3N)cc2)cc1 (repeat unit)
0.0432	1.5	–	0.0661	0.39	*Oc1ccc(S(=O)(=O)c2ccc(Oc3ccc(C(C)(C)c4cccc(*)c4)cc3)cc2)cc1 (repeat unit)

CH4 permeability [Barrer]	CO2 permeability [Barrer]	H2 permeability [Barrer]	N2 permeability [Barrer]	O2 permeability [Barrer]	Structure (SMILES)
0.32	8.12	–	0.278	1.56	*Oc1ccc(S(=O)(=O)c2ccc(Oc3ccc(C(C)(c4ccccc4)c4ccc(*)cc4)cc3)cc2)cc1 (repeat unit)
0.531	13.8	–	0.484	2.76	*Oc1ccc(S(=O)(=O)c2ccc(Oc3ccc(C4(c5ccc(*)cc5)c5ccccc5-c5ccccc54)cc3)cc2)cc1 (repeat unit)
0.0364	1.6	8.1	0.0568	0.42	*Oc1ccc(S(=O)(=O)c2ccc(Oc3cccc4c(*)cccc34)cc2)cc1 (repeat unit)
1.14	18.9	–	1	5.31	*Oc1ccc2c(c1)C1(CC2(C)C)CC(C)(C)c2ccc(OC(=O)c3cccc(C(*)=O)c3)cc21 (repeat unit)
0.155	4.5	–	0.203	1.4	*Oc1ccc2c(c1)C1(CC2(C)C)CC(C)(C)c2ccc(Oc3ccc4c(c3)C(=O)N(c3cccc(N5C(=O)c6ccc(*)cc6C5=O)c3)C4=O)cc21 (repeat unit)
0.052	1.5	8	0.066	0.39	*Oc1cccc(C(C)(C)c2ccc(Oc3ccc(S(=O)(=O)c4ccc(*)cc4)cc3)cc2)c1 (repeat unit)
0.036	1.6	–	0.057	0.42	*Oc1cccc2c(Oc3ccc(S(=O)(=O)c4ccc(*)cc4)cc3)cccc12 (repeat unit)
390	3940	1920	257	722	*c1c(C)c(C)c(N2C(=O)c3cc4c(cc3C2=O)C2(CC(C)(C)c3cc5c(cc32)C(=O)N(*)C5=O)CC4(C)C)c(C)c1C (repeat unit)
45.2	734	434	37.8	87	*c1c(C)c(C)c(N2C(=O)c3ccc(C(c4ccc5c(c4)C(=O)N(*)C5=O)(C(F)(F)F)C(F)(F)F)cc3C2=O)c(C)c1C (repeat unit)
7.6	200	230	8.1	33	*c1c(C)c(C)c(N2C(=O)c3ccc(Oc4cc(C)c(Oc5ccc6c(c5)C(=O)N(*)C6=O)c(C)c4C)cc3C2=O)c(C)c1C (repeat unit)
23.9	329	–	22	83.4	*c1c(C)c2c(c(N3C(=O)c4ccc(-c5ccc6c(c5)C(=O)N(*)C6=O)cc4C3=O)c1C)C(C)(C)CC2 (repeat unit)
10.3	161	–	10.3	43.9	*c1c(C)c2c(c(N3C(=O)c4ccc(Oc5ccc6c(c5)C(=O)N(*)C6=O)cc4C3=O)c1C)C(C)(C)CC2 (repeat unit)
180	3000	2490	141	583	*c1c(C)cc(-c2cc(C)c(-n3c(=O)c4cc5oc6cc7c(cc6oc5cc4c3=O)C3(C)CCC7(C)c4cc5oc6cc7c(=O)n(*)c(=O)c7cc6oc5cc43)c3ccccc23)c2ccccc12 (repeat unit)
359	4030	1620	212	640	*c1c(C)cc(-c2cc(C)c(N3C(=O)c4cc5c(cc4C3=O)C3(CC(C)(C)c4cc6c(cc43)C(=O)N(*)C6=O)CC5(C)C)c3ccccc23)c2ccccc12 (repeat unit)
1.21	39	58	1.33	6.6	*c1c(C)cc(-c2cc(C)c(N3C(=O)c4cc5c(cc4C3=O)S(=O)(=O)c3cc4c(cc3S5(=O)=O)C(=O)N(*)C4=O)c(C)c2)cc1C (repeat unit)
5.6	95	150	4.9	22	*c1c(C)cc(-c2cc(C)c(N3C(=O)c4ccc(Oc5cc(C(C)(C)C)c(Oc6ccc7c(c6)C(=O)N(*)C7=O)cc5C(C)(C)C)cc4C3=O)c(C)c2)cc1C (repeat unit)
1.2	39	55	1.2	6.5	*c1c(C)cc(-c2cc(C)c(N3C(=O)c4ccc(Oc5cc(C)c(Oc6ccc7c(c6)C(=O)N(*)C7=O)c(C)c5C)cc4C3=O)c(C)c2)cc1C (repeat unit)
8	182	210	7.5	32	*c1c(C)cc(C)c(N2C(=O)c3ccc(-c4ccc5c(c4)C(=O)N(*)C5=O)cc3C2=O)c1C (repeat unit)
20.4	422	435	24.3	87.7	*c1c(C)cc(C)c(N2C(=O)c3ccc(C(c4ccc5c(c4)C(=O)N(*)C5=O)(C(F)(F)F)C(F)(F)F)cc3C2=O)c1C (repeat unit)

Structure (SMILES)	CH4 permeability [Barrer]	CO2 permeability [Barrer]	H2 permeability [Barrer]	N2 permeability [Barrer]	O2 permeability [Barrer]
*/C(C)=C(/*)[Si](C)(C)CCC (repeat unit)	44	230	250	21	70
